Measured values reported in publication PMC5041104, “Structure-based discovery of two antiviral inhibitors targeting the NS3 helicase of Japanese encephalitis virus” (Scientific Reports, 2016).

Columns and labels:
[1] = system: JEV; assay: Plaque reduction assay in BHK-21 cells; conditions: 48 h, untreated control 3.03 × 10^6 PFU/mL
[2] = target: JEV NS3 helicase (unwinding activity) (Japanese encephalitis virus, UniProt P27395); assay: NS3 helicase unwinding inhibition, fluorescence resonance energy transfer (FRET) assay; conditions: for highest inhibitory level on NS3 helicase unwinding activity: concentration-dependent inhibition, levels reaching as high as; for inhibition of NS3 unwinding activity in helicase inhibitor screening: screening of 41 selected compounds, FRET assay
Sequence of JEV NS3 helicase (unwinding activity) (P27395 1684-2123): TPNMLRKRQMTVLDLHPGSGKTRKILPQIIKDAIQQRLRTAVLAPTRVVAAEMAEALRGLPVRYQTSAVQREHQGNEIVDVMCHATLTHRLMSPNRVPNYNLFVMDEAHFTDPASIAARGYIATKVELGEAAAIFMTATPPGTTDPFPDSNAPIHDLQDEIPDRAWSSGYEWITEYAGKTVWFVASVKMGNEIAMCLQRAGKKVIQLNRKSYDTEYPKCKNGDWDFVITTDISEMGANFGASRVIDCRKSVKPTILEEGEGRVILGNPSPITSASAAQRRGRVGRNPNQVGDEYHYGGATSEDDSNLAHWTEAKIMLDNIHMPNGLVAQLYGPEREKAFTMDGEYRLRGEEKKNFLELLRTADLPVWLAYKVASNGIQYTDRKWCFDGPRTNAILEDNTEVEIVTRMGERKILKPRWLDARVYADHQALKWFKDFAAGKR

[3] = target: JEV NS3 helicase (ATPase activity) (Japanese encephalitis virus, UniProt P27395); assay: Effect on the ATPase activity of NS3 helicase (Kinase-Glo Plus luminescence); assay type: biochemical; conditions: 200 μM compound, 30 min
Sequence of JEV NS3 helicase (ATPase activity) (P27395 1684-2123): as above
Procedure: The effect of each compound on ATPase activity was tested using a nonradioactive method as previously described. […] The reaction mixture comprised 3 μM of recombinant NS3 helicase and 100 μM ATP in ATPase reaction buffer (20 mM Tris-HCl pH 8.0, 50 mM NaCl, 10 mM MgCl2). Three reactions were conducted for each test. After incubation at 37 °C for 30 min, an equal volume of Kinase-Glo Plus reagent (Promega) was added to each well to quantitate the remaining ATP. The luminescence value of each well was tested by an Infinite 200 PRO multimode reader.

[4] = system: JEV; assay: Antiviral effect by indirect immunofluorescence assay (IFA) of NS5 in BHK-21 cells; conditions: 48 h, JEV-infected control 84.03%
[5] = Compound cytotoxicity (cell viability); conditions: hamster
[6] = system: JEV; assay: Determination of EC50 (CPE inhibition, Celltiter-Glo cell viability of JEV-infected BHK-21 cells); conditions: Japanese encephalitis virus, BHK-21, 120 h, read-out: 50% effective concentration (EC50)
[7] = system: JEV; assay: Antiviral effect by Western blot of JEV envelope (E) protein in BHK-21 cells; assay type: cell-based, Japanese encephalitis virus; conditions: 48 h, normalized to GAPDH; for reduction of expression of E protein: 20 μM, relative to non-compound treated group
[8] = target: WNV NS2B-NS3 protease; conditions: cited from earlier work
[9] = system: WNV; conditions: WNV in cells; read-out: EC50, inhibitory effect on the virus in cells; cited from earlier work

Row | Compound | average virus titer ([1]; 20 μM) | average virus titer ([1]; 30 μM) | average virus titer ([1]; 40 μM) | IC50 [2] [µM] | highest inhibitory level on NS3 helicase unwinding activity [2] [%] | inhibition of NS3 unwinding activity in helicase inhibitor screening [2] | inhibition of ATPase activity of NS3 helicase [3] | level of JEV-positive cells (NS5 positive) ([4]; 5 μM) [%] | level of JEV-positive cells (NS5 positive) ([4]; 25 μM) [%] | CC50 at 120 h [5] [µM] | EC50 [6] [µM] | reduction of expression of E protein [7] [%] | average virus titer ([1]; 10 μM) | viability at 120 h, 200 µM [5] [%] | inhibition of E protein expression ([7]; 5 μM) [%] | Ki [8] [µM] | EC50 [9] [µM]
1 | CS(=O)(=O)c1ccc2nc(NC(=O)c3ccc(Cn4cc([N+](=O)[O-])cn4)cc3)sc2c1 [compound 1] | 2.7 × 10^4 PFU/mL | 2.1 × 10^4 PFU/mL | 8.9 × 10^3 PFU/mL | 148 | 79 | more than 60% | do not inhibit the ATPase activity | 58.71 | 13.29 | 168 | 25.7 | 70.1 |  |  |  |  | 
2 | CCCC(=O)Nc1nc2ccc(NC(=S)NC(=O)c3cccs3)cc2s1 [compound 2] | 3.6 × 10^4 PFU/mL | 2.6 × 10^4 PFU/mL | 1.8 × 10^4 PFU/mL | 150 | 73 | more than 60% | do not inhibit the ATPase activity | 50.40 | 10.07 |  | 23.5 | 94.8 | 4.65 × 10^4 PFU/mL | > 60 | 86.3 |  | 
3 | phenacetyl-KKR-Aldehyde |  |  |  |  |  |  |  |  |  |  |  |  |  |  |  | 0.009 | 1.6
